# Results from patent publication US8952024B2, “Herbicidal pyrimidone derivatives” (E I du Pont de Nemours and Company, priority 2009, dated 2015).
# Where two headings read alike, the source gives them in different places.
# Assays:
# Type in all cases: in vivo
# [1] = tested on: giant foxtail (Setaria faberii); test: Test B pre-/postemergence plant response; conditions: for pest or weed control at 16 g/ha: 16 g ai/ha; for pest or weed control at 16 g/ha / pest or weed control at 31 g/ha / pest or weed control at 62 g/ha: read-out: Plant response rating, Foxtail, Giant; for pest or weed control at 31 g/ha: 31 g ai/ha; for pest or weed control at 62 g/ha: 62 g ai/ha
# Summary of the method: (§1)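 Test compounds, formulated in a non-phytotoxic solvent mixture with surfactant, are applied to the soil surface (loam and sand blend) right after seeding, or sprayed over plants at the 1- to 4-leaf stage grown in peat moss/vermiculite medium. After 13 to 15 days under glasshouse conditions, each species is scored visually from 0 (no effect) to 100 (complete control) against controls.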
# [2] = tested on: green foxtail (Setaria viridis); test: Test B pre-/postemergence plant response; conditions: for pest or weed control at 16 g/ha: 16 g ai/ha; for pest or weed control at 16 g/ha / pest or weed control at 31 g/ha / pest or weed control at 62 g/ha: read-out: Plant response rating, Foxtail, Green; for pest or weed control at 31 g/ha: 31 g ai/ha; for pest or weed control at 62 g/ha: 62 g ai/ha
# Summary of the method: as §1
# [3] = tested on: cocklebur (Xanthium strumarium); test: Test B pre-/postemergence plant response; conditions: for pest or weed control at 16 g/ha: 16 g ai/ha; for pest or weed control at 16 g/ha / pest or weed control at 31 g/ha / pest or weed control at 62 g/ha: read-out: Plant response rating, Cocklebur; for pest or weed control at 31 g/ha: 31 g ai/ha; for pest or weed control at 62 g/ha: 62 g ai/ha
# Summary of the method: as §1
# [4] = tested on: large crabgrass (Digitaria sanguinalis); test: Test A pre-/postemergence plant response; conditions: Digitaria sanguinalis, 240 h; for pest or weed control at 125 g/ha: 125 g ai/ha; for pest or weed control at 500 g/ha: 500 g ai/ha
# Summary of the method: (§2)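 Greenhouse trial, ~10 days. Soil (loam/sand) sprayed preemergence after seeding; emerged plants (1–2 leaf, 2–10 cm) sprayed postemergence in parallel. Response = visual injury vs untreated control, 0–100.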
# [5] = tested on: velvetleaf (Abutilon theophrasti); test: Test A pre-/postemergence plant response; conditions: Abutilon theophrasti, 240 h; for pest or weed control at 125 g/ha: 125 g ai/ha; for pest or weed control at 500 g/ha: 500 g ai/ha
# Summary of the method: as §2
# [6] = tested on: giant foxtail (Setaria faberii); test: Test A pre-/postemergence plant response; conditions: Setaria faberi, 240 h; for pest or weed control at 125 g/ha: 125 g ai/ha; for pest or weed control at 500 g/ha: 500 g ai/ha
# Summary of the method: as §2
# [7] = tested on: wheat (Triticum aestivum); test: Test A pre-/postemergence plant response; conditions: Triticum aestivum, 240 h; for plant injury at 125 g/ha: 125 g ai/ha; for plant injury at 500 g/ha: 500 g ai/ha
# Summary of the method: as §2
# [8] = tested on: barnyardgrass (Echinochloa crus-galli); test: Test A pre-/postemergence plant response; conditions: Echinochloa crus-galli, 240 h; for pest or weed control at 125 g/ha: 125 g ai/ha; for pest or weed control at 500 g/ha: 500 g ai/ha
# Summary of the method: as §2
# [9] = tested on: morningglory (Ipomoea spp.); test: Test A pre-/postemergence plant response; conditions: Ipomoea, 240 h; for pest or weed control at 125 g/ha: 125 g ai/ha; for pest or weed control at 500 g/ha: 500 g ai/ha
# Summary of the method: as §2
# [10] = tested on: pigweed (Amaranthus retroflexus); test: Test A pre-/postemergence plant response; conditions: Amaranthus retroflexus, 240 h; for pest or weed control at 125 g/ha: 125 g ai/ha; for pest or weed control at 500 g/ha: 500 g ai/ha
# Summary of the method: as §2
# [11] = tested on: corn (Zea mays); test: Test A pre-/postemergence plant response; conditions: Zea mays, 240 h; for Corn plant response rating (crop injury, 0 = no effect, 100 = complete kill) at 500 g/ha: 500 g ai/ha
# Summary of the method: as §2
# [12] = Preemergence, 125 g ai/ha, 0 to 100 scale
# [13] = Setaria faberi, pre-emergence, Preemergence, scale 0 to 100 (0 no effect, 100 complete control)
# [14] = Setaria viridis, pre-emergence, Preemergence, scale 0 to 100 (0 no effect, 100 complete control)
# [15] = Xanthium strumarium, pre-emergence, Preemergence, scale 0 to 100 (0 no effect, 100 complete control)
smiles,measurement,setting,value
"O=C1CCCC(O)=C1C(=O)c1cnc(-c2ccccc2)n(-c2ccccc2)c1=O [Compound 2, 5-[(2-hydroxy-6-oxo-1-cyclohexen-1-yl)carbonyl]-2,3-diphenyl-4(3H)-pyrimidinone]","Foxtail, Giant plant response rating",[1]; [12],70
same,pest or weed control at 16 g/ha,"[1]; Setaria faberi, post-emergence, Postemergence, 0 to 100 scale",70%
same,pest or weed control at 31 g/ha,"[1]; Setaria faberi, post-emergence, Postemergence, scale 0 to 100 (0 no effect, 100 complete control)",85%
same,pest or weed control at 62 g/ha,"[1]; Setaria faberi, post-emergence, Postemergence, scale 0 (no effect) to 100 (complete control), 13 to 15 days",85%
same,pest or weed control at 125 g/ha,"[1]; Setaria faberi, post-emergence, Postemergence, 125 g ai/ha, visual rating after 13 to 15 days, scale 0 (no effect) to 100 (complete control)",85%
same,pest or weed control at 16 g/ha,[1]; [13],0%
same,pest or weed control at 31 g/ha,[1]; [13],15%
same,pest or weed control at 62 g/ha,"[1]; Setaria faberi, pre-emergence, Preemergence, scale 0 to 100, 0 no effect, 100 complete control",20%
same,"Foxtail, Green plant response rating",[2]; [12],60
same,pest or weed control at 16 g/ha,"[2]; Setaria viridis, post-emergence, Postemergence, 0 to 100 scale",50%
same,pest or weed control at 31 g/ha,"[2]; Setaria viridis, post-emergence, Postemergence, scale 0 to 100 (0 no effect, 100 complete control)",75%
same,pest or weed control at 62 g/ha,"[2]; Setaria viridis, post-emergence, Postemergence, scale 0 (no effect) to 100 (complete control), 13 to 15 days",90%
same,pest or weed control at 125 g/ha,"[2]; Setaria viridis, post-emergence, Postemergence, 125 g ai/ha, visual rating after 13 to 15 days, scale 0 (no effect) to 100 (complete control)",100%
same,pest or weed control at 16 g/ha,[2]; [14],0%
same,pest or weed control at 31 g/ha,[2]; [14],0%
same,pest or weed control at 62 g/ha,"[2]; Setaria viridis, pre-emergence, Preemergence, scale 0 to 100, 0 no effect, 100 complete control",5%
same,Cocklebur plant response rating,[3]; [12],80
same,pest or weed control at 16 g/ha,"[3]; Xanthium strumarium, post-emergence, Postemergence, 0 to 100 scale",75%
same,pest or weed control at 31 g/ha,"[3]; Xanthium strumarium, post-emergence, Postemergence, scale 0 to 100 (0 no effect, 100 complete control)",80%
same,pest or weed control at 62 g/ha,"[3]; Xanthium strumarium, post-emergence, Postemergence, scale 0 (no effect) to 100 (complete control), 13 to 15 days",90%
same,pest or weed control at 125 g/ha,"[3]; Xanthium strumarium, post-emergence, Postemergence, 125 g ai/ha, visual rating after 13 to 15 days, scale 0 (no effect) to 100 (complete control)",95%
same,pest or weed control at 16 g/ha,[3]; [15],0%
same,pest or weed control at 31 g/ha,[3]; [15],0%
same,pest or weed control at 62 g/ha,"[3]; Xanthium strumarium, pre-emergence, Preemergence, scale 0 to 100, 0 no effect, 100 complete control",65%
same,pest or weed control at 125 g/ha,"[4]; post-emergence, Postemergence, visual injury, 0 to 100 scale (0 no effect, 100 complete control), approx. ten days, read-out: Crabgrass, Large plant response rating",90%
same,pest or weed control at 500 g/ha,"[4]; post-emergence, Postemergence, 0 to 100 scale, 0 = no effect, 100 = complete control, approx. ten days, read-out: Plant response rating, Crabgrass, Large",100%
same,pest or weed control at 125 g/ha,"[4]; pre-emergence, Preemergence, 0 to 100 scale, 0 = no effect, 100 = complete control, read-out: Plant response rating, Crabgrass, Large",80%
same,pest or weed control at 500 g/ha,"[4]; pre-emergence, Preemergence, visual injury, 0 to 100 scale (0 no effect, 100 complete control), approx. ten days, read-out: Plant response rating, Crabgrass, Large",100%
same,pest or weed control at 125 g/ha,"[5]; post-emergence, Postemergence, visual injury, 0 to 100 scale (0 no effect, 100 complete control), approx. ten days, read-out: Velvetleaf plant response rating",100%
same,pest or weed control at 500 g/ha,"[5]; post-emergence, Postemergence, 0 to 100 scale, 0 = no effect, 100 = complete control, approx. ten days, read-out: Plant response rating, Velvetleaf",100%
same,pest or weed control at 125 g/ha,"[5]; pre-emergence, Preemergence, 0 to 100 scale, 0 = no effect, 100 = complete control, read-out: Plant response rating, Velvetleaf",60%
same,pest or weed control at 500 g/ha,"[5]; pre-emergence, Preemergence, visual injury, 0 to 100 scale (0 no effect, 100 complete control), approx. ten days, read-out: Plant response rating, Velvetleaf",100%
same,pest or weed control at 125 g/ha,"[6]; post-emergence, Postemergence, visual injury, 0 to 100 scale (0 no effect, 100 complete control), approx. ten days, read-out: Foxtail, Giant plant response rating",90%
same,pest or weed control at 500 g/ha,"[6]; post-emergence, Postemergence, 0 to 100 scale, 0 = no effect, 100 = complete control, approx. ten days, read-out: Plant response rating, Foxtail, Giant",100%
same,pest or weed control at 125 g/ha,"[6]; pre-emergence, Preemergence, 0 to 100 scale, 0 = no effect, 100 = complete control, read-out: Plant response rating, Foxtail, Giant",50%
same,pest or weed control at 500 g/ha,"[6]; pre-emergence, Preemergence, visual injury, 0 to 100 scale (0 no effect, 100 complete control), approx. ten days, read-out: Plant response rating, Foxtail, Giant",90%
same,plant injury at 125 g/ha,"[7]; post-emergence, Postemergence, visual injury, 0 to 100 scale (0 no effect, 100 complete control), approx. ten days, read-out: Wheat plant response rating",0%
same,plant injury at 500 g/ha,"[7]; post-emergence, Postemergence, 0 to 100 scale, 0 = no effect, 100 = complete control, approx. ten days, read-out: Plant response rating, Wheat",20%
same,plant injury at 125 g/ha,"[7]; pre-emergence, Preemergence, 0 to 100 scale, 0 = no effect, 100 = complete control, read-out: Plant response rating, Wheat",0%
same,plant injury at 500 g/ha,"[7]; pre-emergence, Preemergence, visual injury, 0 to 100 scale (0 no effect, 100 complete control), approx. ten days, read-out: Plant response rating, Wheat",0%
same,pest or weed control at 125 g/ha,"[8]; post-emergence, Postemergence, visual injury, 0 to 100 scale (0 no effect, 100 complete control), approx. ten days, read-out: Barnyardgrass plant response rating",100%
same,pest or weed control at 500 g/ha,"[8]; post-emergence, Postemergence, 0 to 100 scale, 0 = no effect, 100 = complete control, approx. ten days, read-out: Plant response rating, Barnyardgrass",100%
same,pest or weed control at 125 g/ha,"[8]; pre-emergence, Preemergence, 0 to 100 scale, 0 = no effect, 100 = complete control, read-out: Plant response rating, Barnyardgrass",10%
same,pest or weed control at 500 g/ha,"[8]; pre-emergence, Preemergence, visual injury, 0 to 100 scale (0 no effect, 100 complete control), approx. ten days, read-out: Plant response rating, Barnyardgrass",70%
same,pest or weed control at 125 g/ha,"[9]; post-emergence, Postemergence, visual injury, 0 to 100 scale (0 no effect, 100 complete control), approx. ten days, read-out: Morningglory plant response rating",90%
same,pest or weed control at 500 g/ha,"[9]; post-emergence, Postemergence, 0 to 100 scale, 0 = no effect, 100 = complete control, approx. ten days, read-out: Plant response rating, Morningglory",100%
same,pest or weed control at 125 g/ha,"[9]; pre-emergence, Preemergence, 0 to 100 scale, 0 = no effect, 100 = complete control, read-out: Plant response rating, Morningglory",60%
same,pest or weed control at 500 g/ha,"[9]; pre-emergence, Preemergence, visual injury, 0 to 100 scale (0 no effect, 100 complete control), approx. ten days, read-out: Plant response rating, Morningglory",90%
same,pest or weed control at 125 g/ha,"[10]; post-emergence, Postemergence, visual injury, 0 to 100 scale (0 no effect, 100 complete control), approx. ten days, read-out: Pigweed plant response rating",100%
same,pest or weed control at 500 g/ha,"[10]; post-emergence, Postemergence, 0 to 100 scale, 0 = no effect, 100 = complete control, approx. ten days, read-out: Plant response rating, Pigweed",100%
same,pest or weed control at 125 g/ha,"[10]; pre-emergence, Preemergence, 0 to 100 scale, 0 = no effect, 100 = complete control, read-out: Plant response rating, Pigweed",100%
same,pest or weed control at 500 g/ha,"[10]; pre-emergence, Preemergence, visual injury, 0 to 100 scale (0 no effect, 100 complete control), approx. ten days, read-out: Plant response rating, Pigweed",100%
same,plant injury at 125 g/ha,"[11]; post-emergence, Postemergence, 125 g ai/ha, visual injury, 0 to 100 scale (0 no effect, 100 complete control), approx. ten days, read-out: Corn plant response rating",30%
same,"Corn plant response rating (crop injury, 0 = no effect, 100 = complete kill) at 500 g/ha","[11]; post-emergence, Postemergence, 0 to 100 scale, 0 = no effect, 100 = complete control, approx. ten days",90%
same,"Corn plant response rating (crop injury, 0 = no effect, 100 = complete kill) at 125 g/ha","[11]; pre-emergence, Preemergence, 125 g ai/ha, 0 to 100 scale, 0 = no effect, 100 = complete control",0%
same,"Corn plant response rating (crop injury, 0 = no effect, 100 = complete kill) at 500 g/ha","[11]; pre-emergence, Preemergence, visual injury, 0 to 100 scale (0 no effect, 100 complete control), approx. ten days",0%
